Measurements reported in US20260250290A1 (BRISTOL-MYERS SQUIBB COMPANY, priority 2023, published 2026).
pIC50: −log10 of the molar value. Structures can show the parent of a compound that is named as a salt.

biological target: T1, SGK1 (Homo sapiens, UniProt O00141); assay: SGK1 inhibition Assay B (Echo mass spectrometry of phosphorylated peptide product); assay type: biochemical; conditions: 60 min at room temperature
T1 sequence (O00141 1-431): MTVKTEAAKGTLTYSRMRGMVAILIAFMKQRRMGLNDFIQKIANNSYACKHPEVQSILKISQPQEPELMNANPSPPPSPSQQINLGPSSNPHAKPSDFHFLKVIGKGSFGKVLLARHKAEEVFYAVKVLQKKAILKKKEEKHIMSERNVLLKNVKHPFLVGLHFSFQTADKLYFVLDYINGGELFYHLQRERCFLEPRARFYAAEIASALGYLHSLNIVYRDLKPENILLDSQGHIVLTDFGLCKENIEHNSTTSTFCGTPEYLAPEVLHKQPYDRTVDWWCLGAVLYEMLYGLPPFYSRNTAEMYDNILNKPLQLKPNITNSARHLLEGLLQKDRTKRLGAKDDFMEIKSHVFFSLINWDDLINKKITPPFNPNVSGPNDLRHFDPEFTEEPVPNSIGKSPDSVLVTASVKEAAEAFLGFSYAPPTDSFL

Point of comparison: `CCOC1=C(C(=O)N[C@@H]2CCCN(c3cc(C4=CCN(C(C)=O)C4)n4ncnc(N)c34)C2)CN(c2ccc(OC)cc2)C1=O` [Example 755, (R)-N-(1-(7-(1-acetyl-2,5-dihydro-1H-pyrrol-3-yl)-4-aminopyrrolo[2,1-f][1,2,4]triazin-5-yl)piperidin-3-yl)-4-ethoxy-1-(4-methoxyphenyl)-5-oxo-2,5-dihydro-1H-pyrrole-3-carboxamide], pIC50 7.68. Against it:
- CCC1=C(c2cc(N3CCC[C@@H](NC(=O)c4sc(C)nc4O[C@H]4CC[C@@H](NC(C)CO)CC4)C3)c3c(N)ncnn23)COC1=O (single isomer, unassigned) [Example 1019] — 1.62 log units higher, 9.30
- CCC1=C(c2cc(N3CCC[C@@H](NC(=O)c4sc(C)nc4O[C@H]4CC[C@@H](NC(C)CO)CC4)C3)c3c(N)ncnn23)COC1=O (single isomer, unassigned) [Example 1020] — 1.28 log units higher, 8.96
- CCC1=C(c2cc(N3CCC[C@@H](NC(=O)c4sc(C)nc4OC4CCC(N5CC(O)C5)CC4)C3)c3c(N)ncnn23)COC1=O (single isomer, unassigned) [Example 1021] — 1.47 log units higher, 9.15
- CCC1=C(c2cc(N3CCC[C@@H](NC(=O)c4sc(C)nc4OC4CCC(N[C@@H](C)COC)CC4)C3)c3c(N)ncnn23)COC1=O (single isomer, unassigned) [Example 1023] — 1.42 log units higher, 9.10
- CCC1=C(c2cc(N3CCC[C@@H](NC(=O)c4sc(C)nc4OC4CCC(N[C@H](C)COC)CC4)C3)c3c(N)ncnn23)COC1=O (single isomer, unassigned) [Example 1024] — 1.42 log units higher, 9.10
- CC(=O)N1CC=C(c2cc(N3CCC[C@@H](NC(=O)c4sc(Cl)cc4OC4CCC(N5CCOCC5)CC4)C3)c3c(N)ncnn23)C1 (single isomer, unassigned; isomer 1) [Example 936] — 1.02 log units higher, 8.70
- Cc1nc(O[C@@H]2CCC[C@H](N(C)C)C2)c(C(=O)N[C@@H]2CCCN(c3cc(-c4ccc(C(N)=O)c(F)c4)n4ncnc(N)c34)C2)s1 (single isomer, unassigned; isomer 1) [Example 939] — 1.37 log units higher, 9.05
- Nc1ncnn2c(-c3ccc(-n4cnnn4)c(F)c3)cc(N3CCC[C@@H](NC(=O)c4sc(Cl)cc4OC4CCC(O)CC4)C3)c12 (single isomer, unassigned; isomer 2) [Example 935] — 2.02 log units higher, 9.70
- COC(=O)N1CC=C(c2cc(N3CCC[C@@H](NC(=O)c4sc(C)nc4OC4CCNCC4)C3)c3c(N)ncnn23)C1 [Example 359, Methyl (R)-3-(4-amino-5-(3-(2-methyl-4-(piperidin-4-yloxy)thiazole-5-carboxamido)piperidin-1-yl)pyrrolo[2,1-f][1,2,4]triazin-7-yl)-2.5-dihydro-1H-pyrrole-1-carboxylate] — 0.84 log units higher, 8.52
- COC(=O)N1CC=C(c2cc(N3CCC[C@@H](NC(=O)c4sc(C)nc4OC4CCN(C)CC4)C3)c3c(N)ncnn23)C1 [Example 360, Methyl (R)-3-(4-amino-5-(3-(2-methyl-4-((1-methylpiperidin-4-yl)oxy)thiazole-5-carboxamido)piperidin-1-yl)pyrrolo[2,1-f][1,2,4]triazin-7-yl)-2,5-dihydro-1H-pyrrole-1-carboxylate] — within 0.2 log units, 7.85
- COC(=O)N1CC=C(c2cc(N3CCC[C@@H](NC(=O)c4sc(C)nc4OC4CCN(C(C)C)CC4)C3)c3c(N)ncnn23)C1 [Example 361, Methyl (R)-3-(4-amino-5-(3-(4-((1-isopropylpiperidin-4-yl)oxy)-2-methylthiazole-5-carboxamido)piperidin-1-yl)pyrrolo[2,1-f][1,2,4]triazin-7-yl)-2,5-dihydro-1H-pyrrole-1-carboxylate] — within 0.2 log units, 7.59
- CC(=O)N1CC=C(c2cc(N3CCC[C@@H](NC(=O)c4sc(C#N)cc4O[C@@H]4C[C@H]5CC[C@@H](C4)N5C)C3)c3c(N)ncnn23)C1 [Example 753] — 0.24 log units higher, 7.92
- COC1=C(C(=O)N[C@@H]2CCCN(c3cc(C4=CCN(C(C)=O)C4)n4ncnc(N)c34)C2)CN(C)C1=O [Example 754, (R)-N-(1-(7-(1-acetyl-2,5-dihydro-1H-pyrrol-3-yl)-4-aminopyrrolo[2,1-f][1,2,4]triazin-5-yl)piperidin-3-yl)-4-methoxy-1-methyl-5-oxo-2,5-dihydro-1H-pyrrole-3-carboxamide] — 0.89 log units lower, 6.79
- CCOC1=C(C(=O)N[C@@H]2CCCN(c3cc(C4=CCN(C(C)=O)C4)n4ncnc(N)c34)C2)CN(c2ccc(F)cc2F)C1=O [Example 756] — 0.40 log units lower, 7.28
- CCOC1=C(C(=O)N[C@@H]2CCCN(c3cc(C4=CCN(C(C)=O)C4)n4ncnc(N)c34)C2)CN(C2(C(F)(F)F)CC2)C1=O [Example 757, (R)-N-(1-(7-(1-acetyl-2,5-dihydro-1H-pyrrol-3-yl)-4-aminopyrrolo[2,1-f][1,2,4]triazin-5-yl)piperidin-3-yl)-4-ethoxy-5-oxo-1-(1-(trifluoromethyl)cyclopro-pyl)-2,5-dihydro-1H-pyrrole-3-carboxamide] — 0.63 log units lower, 7.05
- CCOC1=C(C(=O)N[C@@H]2CCCN(c3cc(C4=CCN(C(C)=O)C4)n4ncnc(N)c34)C2)CN(c2ccccc2)C1=O [Example 758, (R)-N-(1-(7-(1-acetyl-2,5-dihydro-1H-pyrrol-3-yl)-4-aminopyrrolo[2,1-f][1,2,4]triazin-5-yl)piperidin-3-yl)-4-ethoxy-5-oxo-1-phenyl-2,5-dihydro-1H-pyrrole-3-carboxamide, TFA salt] — 0.84 log units lower, 6.84
- CCOC1=C(C(=O)N[C@@H]2CCCN(c3cc(C4=CCN(C(C)=O)C4)n4ncnc(N)c34)C2)CN(CC(F)(F)F)C1=O [Example 759, (R)-N-(1-(7-(1-acetyl-2,5-dihydro-1H-pyrrol-3-yl)-4-aminopyrrolo[2,1-f][1,2,4]triazin-5-yl)piperidin-3-yl)-4-ethoxy-5-oxo-1-(2,2,2-trifluoroethyl)-2,5-dihydro-1H-pyrrole-3-carboxamide] — 1.63 log units lower, 6.05
- CN1CCN(c2cccc(C(=O)N[C@@H]3CCCN(c4cc(-c5ccc6[nH]ncc6c5)n5ncnc(N)c45)C3)n2)CC1 [Example 806, (R)-N-(1-(4-amino-7-(1H-indazol-5-yl)pyrrolo[2,1-f][1,2,4]triazin-5-yl)piperidin-3-yl)-6-(4-methylpiperazin-1-yl)picolinamide] — 0.81 log units lower, 6.87
- CN1CCN(c2cccc(C(=O)N[C@@H]3CCCN(c4cc(-c5cnn(C(F)F)c5)n5ncnc(N)c45)C3)n2)CC1 [Example 807, (R)-N-(1-(4-amino-7-(1-(difluoromethyl)-1H-pyrazol-4-yl)pyrrolo[2,1-f][1,2,4]triazin-5-yl)piperidin-3-yl)-6-(4-methylpiperazin-1-yl)picolinamide, TFA salt] — 0.29 log units lower, 7.39
- CN1CCN(c2cccc(C(=O)N[C@@H]3CCCN(c4cc(-c5ccc(-n6cccn6)cc5)n5ncnc(N)c45)C3)n2)CC1 [Example 808, (R)-N-(1-(7-(4-(1H-pyrazol-1-yl)phenyl)-4-aminopyrrolo[2,1-f][1,2,4]triazin-5-yl)piperidin-3-yl)-6-(4-methylpiperazin-1-yl)picolinamide] — 0.21 log units lower, 7.47
- CC(=O)c1ccc(-c2cc(N3CCC[C@@H](NC(=O)c4cccc(N5CCN(C)CC5)n4)C3)c3c(N)ncnn23)cn1 [Example 809, (R)-N-(1-(7-(6-acetylpyridin-3-yl)-4-aminopyrrolo[2,1-f][1,2,4]triazin-5-yl)piperidin-3-yl)-6-(4-methylpiperazin-1-yl)picolinamide] — 0.58 log units lower, 7.10
